Results taken from US8129371B2, “Thienopyrimidine and pyrazolopyrimidine compounds and their use as mTOR kinase and PI3 kinase inhibitors” (Wyeth LLC, priority 2007, dated 2012).
Like-named read-outs stand apart in the source and are kept apart here.

Key:
Human mTOR (FLAG-TOR) = molecular target: T1, Human mTOR (FLAG-TOR) (Homo sapiens, UniProt P42345); assay: Human mTOR kinase assay with purified enzyme, DELFIA format; assay type: biochemical
T1 construct: FLAG
Summary of the method: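 DELFIA readout: Eu-anti-P(T389)-S6K antibody (40 ng/mL, 1 h) on captured His6-S6K from the stopped reaction. Kinase step used purified FLAG-tagged human mTOR with test compound in HEPES (pH 7.4)/MnCl2/DTT buffer, 2 h at room temperature (linear 1–6 h), terminated by EDTA/EGTA.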

PI3K [1] = molecular target: T2, PI3K (Homo sapiens, UniProt P42336); assay: Fluorescence polarization assay for PI3K; assay type: biochemical; conditions: read-out: PI3 Kinase α IC50
T2 construct: PI3 Kinase α IC50; other: PI3 Kinase α; other: PI3 Kinase α isoform, fluorescence polarization
Summary of the method: (§1)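 Fluorescence-polarization competition readout: after 30–60 min of PIP2/ATP turnover in 1% DMSO, a stop mix with GST-GRP (70 nM) and red probe (10 nM) was added.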

PI3K [2] = molecular target: T3, PI3K (Homo sapiens, UniProt P48736); assay: Fluorescence polarization assay for PI3K; assay type: biochemical; conditions: read-out: PI3 Kinase γ IC50
T3 construct: PI3 Kinase γ IC50; other: PI3 Kinase γ; other: PI3 Kinase γ isoform, fluorescence polarization
Summary of the method: as §1

prostate line LNCap = assay: In vitro cell culture growth assay (MTS), LNCap; assay type: cell-based; conditions: Homo sapiens, LNCaP, 72 h, LNCap cells, three days after drug treatment
Summary of the method: (§2)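 Growth is reported as percent of vehicle-treated control grown in the same plate, with viability determined by metabolic conversion of MTS dye and absorbance read at 490 nm. Compounds were applied one day after plating and left for three days.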

breast line MDA468 = assay: In vitro cell culture growth assay (MTS), MDA468; assay type: cell-based; conditions: Homo sapiens, 72 h, MDA468 cells, three days after drug treatment
Summary of the method: as §2

[3] = purified human mTOR enzyme, DELFIA format
[4] = PI3 Kinase α isoform, fluorescence polarization
[5] = PI3 Kinase γ isoform, fluorescence polarization

T3 sequence (P48736 whole entry, canonical isoform): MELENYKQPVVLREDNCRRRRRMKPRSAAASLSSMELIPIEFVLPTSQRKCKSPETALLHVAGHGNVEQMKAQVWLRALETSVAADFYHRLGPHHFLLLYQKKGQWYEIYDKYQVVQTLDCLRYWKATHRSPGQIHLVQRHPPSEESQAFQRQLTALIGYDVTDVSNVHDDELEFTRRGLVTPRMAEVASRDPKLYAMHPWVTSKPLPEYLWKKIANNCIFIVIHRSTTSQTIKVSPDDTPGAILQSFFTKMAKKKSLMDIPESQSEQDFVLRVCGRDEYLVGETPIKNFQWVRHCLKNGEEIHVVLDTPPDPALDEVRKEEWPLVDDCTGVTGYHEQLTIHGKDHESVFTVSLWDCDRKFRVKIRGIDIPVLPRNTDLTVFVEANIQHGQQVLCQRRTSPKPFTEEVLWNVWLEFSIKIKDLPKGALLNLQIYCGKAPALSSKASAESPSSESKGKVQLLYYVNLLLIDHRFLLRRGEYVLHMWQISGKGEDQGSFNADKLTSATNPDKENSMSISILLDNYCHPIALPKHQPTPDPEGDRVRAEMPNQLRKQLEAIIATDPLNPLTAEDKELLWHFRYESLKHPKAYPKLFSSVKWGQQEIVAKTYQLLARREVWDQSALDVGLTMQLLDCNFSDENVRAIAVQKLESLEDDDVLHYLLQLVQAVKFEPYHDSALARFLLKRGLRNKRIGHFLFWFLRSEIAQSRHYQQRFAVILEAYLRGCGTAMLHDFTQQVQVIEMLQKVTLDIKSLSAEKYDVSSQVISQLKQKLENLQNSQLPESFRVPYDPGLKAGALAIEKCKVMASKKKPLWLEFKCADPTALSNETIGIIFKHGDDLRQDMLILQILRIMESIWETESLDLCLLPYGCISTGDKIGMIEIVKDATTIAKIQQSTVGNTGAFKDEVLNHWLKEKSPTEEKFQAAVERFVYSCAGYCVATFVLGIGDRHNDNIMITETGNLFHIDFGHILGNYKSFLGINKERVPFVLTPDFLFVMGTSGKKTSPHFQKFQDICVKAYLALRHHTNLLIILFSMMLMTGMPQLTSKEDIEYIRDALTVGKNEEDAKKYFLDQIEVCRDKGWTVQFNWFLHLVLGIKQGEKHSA
T2 sequence (P42336 whole entry, canonical isoform): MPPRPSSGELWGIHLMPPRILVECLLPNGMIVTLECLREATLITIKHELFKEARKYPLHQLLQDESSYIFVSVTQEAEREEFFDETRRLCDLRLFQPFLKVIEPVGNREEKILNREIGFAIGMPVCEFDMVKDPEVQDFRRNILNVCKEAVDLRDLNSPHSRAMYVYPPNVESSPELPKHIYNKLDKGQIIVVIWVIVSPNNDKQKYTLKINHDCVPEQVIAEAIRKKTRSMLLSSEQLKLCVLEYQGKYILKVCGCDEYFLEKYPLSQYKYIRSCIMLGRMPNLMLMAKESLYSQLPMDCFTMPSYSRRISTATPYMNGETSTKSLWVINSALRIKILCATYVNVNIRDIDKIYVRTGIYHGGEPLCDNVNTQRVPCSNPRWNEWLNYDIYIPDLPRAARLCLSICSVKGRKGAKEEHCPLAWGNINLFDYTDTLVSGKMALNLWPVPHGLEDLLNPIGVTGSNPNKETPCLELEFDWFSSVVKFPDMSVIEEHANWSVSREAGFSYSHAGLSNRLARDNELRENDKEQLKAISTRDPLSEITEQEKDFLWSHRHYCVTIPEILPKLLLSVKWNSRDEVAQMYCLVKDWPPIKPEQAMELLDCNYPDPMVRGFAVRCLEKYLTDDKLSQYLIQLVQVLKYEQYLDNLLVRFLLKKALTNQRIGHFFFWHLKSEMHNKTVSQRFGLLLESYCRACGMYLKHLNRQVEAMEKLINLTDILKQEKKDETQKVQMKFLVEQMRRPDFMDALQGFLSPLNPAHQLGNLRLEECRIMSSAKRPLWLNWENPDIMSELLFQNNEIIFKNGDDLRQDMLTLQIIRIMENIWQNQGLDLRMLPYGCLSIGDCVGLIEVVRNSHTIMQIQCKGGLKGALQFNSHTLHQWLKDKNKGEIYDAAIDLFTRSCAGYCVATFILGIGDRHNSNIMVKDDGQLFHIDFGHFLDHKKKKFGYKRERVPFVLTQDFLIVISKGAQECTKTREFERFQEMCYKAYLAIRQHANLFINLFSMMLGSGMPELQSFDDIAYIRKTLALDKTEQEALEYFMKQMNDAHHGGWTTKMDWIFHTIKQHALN

SMILES	IC50 (Human mTOR (FLAG-TOR); [3]) [nM]	IC50 (PI3K [1]; [4]) [nM]	IC50 (PI3K [2]; [5]) [nM]	IC50 (prostate line LNCap) [nM]	IC50 (breast line MDA468) [nM]	IC50 (Human mTOR (FLAG-TOR)) [nM]	IC50 (PI3K [1]; PI3 Kinase α) [nM]	IC50 (PI3K [2]; PI3 Kinase γ) [nM]
O=C(Nc1ccc(-c2nc(N3CC4CCC(C3)O4)c3sccc3n2)cc1)Nc1cccnc1 [Example 412, 1-{4-[4-(8-oxa-3-azabicyclo[3.2.1]oct-3-yl)thieno[3,2-d]pyrimidin-2-yl]phenyl}-3-pyridin-3-ylurea]	0.28	119	2360	27	72	–	–	–
O=C(Nc1ccc(-c2nc(N3CC4CCC(C3)O4)c3cnn(CC(F)(F)F)c3n2)cc1)Nc1ccc(N2CCOCC2)cc1 [Example 251, 1-(4-morpholin-4-ylphenyl)-3-{4-[4-(8-oxa-3-azabicyclo[3.2.1]oct-3-yl)-1-(2,2,2-trifluoroethyl)-1H-pyrazolo[3,4-d]pyrimidin-6-yl]phenyl}urea]	–	–	–	< 1	< 1	0.34	1000	> 10000
CCn1ncc2c(N3CC4CCC(C3)O4)nc(-c3ccc(NC(=O)Nc4ccc(N)nc4)cc3)nc21 [Example 287, 1-(6-aminopyridin-3-yl)-3-{4-[1-ethyl-4-(8-oxa-3-azabicyclo[3.2.1]oct-3-yl)-1H-pyrazolo[3,4-d]pyrimidin-6-yl]phenyl}urea]	–	–	–	37	200	0.41	164	1460
O=C(Nc1ccc(-c2nc(N3CC4CCC(C3)O4)c3cnn(CC(F)(F)F)c3n2)cc1)Nc1cccnc1 [Example 4, 1-{4-[4-(8-oxa-3-azabicyclo[3.2.1]oct-3-yl)-1-(2,2,2-trifluoroethyl)-1H-pyrazolo[3,4-d]pyrimidin-6-yl]phenyl}-3-pyridin-3-ylurea]	–	–	–	< 27	< 27	0.18	345	2140
O=C(Nc1ccc(-c2nc(N3C[C@@H]4C[C@H]3CO4)c3cnn(CC(F)(F)F)c3n2)cc1)OCCO [Example 291, 2-hydroxyethyl (4-{4-[(1S,4S)-2-oxa-5-azabicyclo[2.2.1]hept-5-yl]-1-(2,2,2-trifluoroethyl)-1H-pyrazolo[3,4-d]pyrimidin-6-yl}phenyl)carbamate]	–	–	–	170	300	9	6140	> 10000
CCn1ncc2c(N3CC4CCC(C3)O4)nc(-c3ccc(NC(=O)NC4CCN(C)CC4)cc3)nc21 [Example 228, 1-{4-[1-ethyl-4-(8-oxa-3-azabicyclo[3.2.1]oct-3-yl)-1H-pyrazolo[3,4-d]pyrimidin-6-yl]phenyl}-3-(1-methylpiperidin-4-yl)urea]	–	–	–	490	900	31.5	4500	> 10000
COCC(COC)n1ncc2c(N3CC4CCC(C3)O4)nc(-c3ccc(NC(=O)NC4CC4)cc3)nc21 [Example 321, 1-cyclopropyl-3-(4-{1-[2-methoxy-1-(methoxymethyl)ethyl]-4-(8-oxa-3-azabicyclo[3.2.1]oct-3-yl)-1H-pyrazolo[3,4-d]pyrimidin-6-yl}phenyl)urea]	10.4	3810	> 10000	170	1050	–	–	–
CNC(=O)Nc1ccc(-c2nc(N3CC4CCC(C3)O4)c3cnn(C4CCC(NN(C)C)CC4)c3n2)cc1 (stereo not shown) [Example 333, 1-(4-{1-[4-(2,2-dimethylhydrazino)cyclohexyl]-4-(8-oxa-3-azabicyclo[3.2.1]oct-3-yl)-1H-pyrazolo[3,4-d]pyrimidin-6-yl}phenyl)-3-methylurea]	0.58	276	4590	68	380	–	–	–
CCn1ncc2c(N3CC4CCC(C3)O4)nc(-c3ccc(NC(=O)OC)cc3)nc21 [Example 375, methyl {4-[1-ethyl-4-(8-oxa-3-azabicyclo[3.2.1]oct-3-yl)-1H-pyrazolo[3,4-d]pyrimidin-6-yl]phenyl}carbamate]	15.5	4790	> 10000	700	1700	–	–	–
COCC(COC)n1ncc2c(N3CC4CCC(C3)O4)nc(-c3ccc(NC(=O)Nc4cccnc4)cc3)nc21 [Example 326, 1-(4-{1-[2-methoxy-1-(methoxymethyl)ethyl]-4-(8-oxa-3-azabicyclo[3.2.1]oct-3-yl)-1H-pyrazolo[3,4-d]pyrimidin-6-yl}phenyl)-3-pyridin-3-ylurea]	2.65	1180	9530	30	150	–	–	–
N#CCCn1ncc2c(N3CC4CCC(C3)O4)nc(-c3ccc(NC(=O)Nc4cccnc4)cc3)nc21 [Example 216, 1-{4-[1-(2-cyanoethyl)-4-(8-oxa-3-azabicyclo[3.2.1]oct-3-yl)-1H-pyrazolo[3,4-d]pyrimidin-6-yl]phenyl}-3-pyridin-3-ylurea]	–	–	–	4	55	0.255	124	3320
COCC(COC)n1ncc2c(N3CC4CCC(C3)O4)nc(-c3ccc(NC(=O)OC)cc3)nc21 [Example 328, methyl (4-{1-[2-methoxy-1-(methoxymethyl)ethyl]-4-(8-oxa-3-azabicyclo[3.2.1]oct-3-yl)-1H-pyrazolo[3,4-d]pyrimidin-6-yl}phenyl)carbamate]	125	5770	> 10000	2350	9200	–	–	–
CC(C)n1ncc2c(N3CC4CCC(C3)O4)nc(-c3ccc(NC(=O)Nc4ccccc4)cc3)nc21 [Example 147, 1-{4-[1-isopropyl-4-(8-oxa-3-azabicyclo[3.2.1]oct-3-yl)-1H-pyrazolo[3,4-d]pyrimidin-6-yl]phenyl}-3-phenylurea]	–	–	–	< 1	18	0.185	30	475
CC(C)(C)n1ncc2c(N3CC4CCC(C3)O4)nc(-c3ccc(NC(=O)Nc4ccncc4)cc3)nc21 [Example 101]	–	–	–	19	110	0.53	178	727
CNC(=O)Nc1ccc(-c2nc(N3CC4CCC(C3)O4)c3cnn([C@H]4CC[C@@H](O)CC4)c3n2)cc1 (relative stereo) [Example 381, 1-{4-[1-(cis-4-hydroxycyclohexyl)-4-(8-oxa-3-azabicyclo[3.2.1]oct-3-yl)-1H-pyrazolo[3,4-d]pyrimidin-6-yl]phenyl}-3-methylurea]	0.3	227	> 10000	20	51	–	–	–
CCn1ncc2c(N3CC4CCC(C3)O4)nc(-c3ccc(NC(=O)NCCF)cc3)nc21 [Example 42, 1-{4-[1-ethyl-4-(8-oxa-3-azabicyclo[3.2.1]oct-3-yl)-1H-pyrazolo[3,4-d]pyrimidin-6-yl]phenyl}-3-(2-fluoroethyl)urea]	–	–	–	31	120	0.31	973	> 10000
CNC(=O)Nc1ccc(-c2nc(N3CC4CCC(C3)O4)c3cnn(C4CCN(C(=O)C(C)C)CC4)c3n2)cc1 [Example 82, 1-{4-[1-(1-isobutyrylpiperidin-4-yl)-4-(8-oxa-3-azabicyclo[3.2.1]oct-3-yl)-1H-pyrazolo[3,4-d]pyrimidin-6-yl]phenyl}-3-methylurea]	–	–	–	60	230	0.58	1710	> 10000
